“And” between values parts separate entries of the source, which are not always exact repeats. Equal values may be shown once.
Assay: Dose-response of purified LHGFR and its variants for L-2-HG in 50 mM Tris-HCl buffer (pH 7.4), Venus/mTFP emission ratio
Type: binding
Description: Purified L-2-HG biosensors and different compounds were diluted by 50 mM Tris-HCl buffer (pH 7.4), mixed together in a black 96-well plate at a volume ratio of 3:1, and the fluorescence intensities were measured using an EnSight microplate reader (PerkinElmer, USA) with excitation at 430 nm, emission at 485 nm (mTFP) and 528 nm (Venus). The dose-response curves were fitted by OriginPro 2016 software (OriginLab) according to the following formula:1 R=Rmax+Rmin−Rmax/1+([L-2-HG]/Kd)^p where R, Rmin, and Rmax refer to the emission ratio of Venus to mTFP, ratio in the absence of L-2-HG, and ratio at saturation with L-2-HG, respectively. The [L-2-HG], Kd, and p refer to the L-2-HG concentration, apparent dissociation constant, and Hill slope, respectively. Emission spectra were recorded at 430 nm excitation, in steps of 2 nm. Excitation spectra were recorded using emission at 550 nm, excitation from 380 to 535 nm in steps of 2 nm.

## O=C(O)CC[C@H](O)C(=O)O [L-2-HG, L-2-Hydroxyglutarate]
For L-2-HG, 2-HG concentration 0.01, Suppl. Fig. 9c
  Emission ratio of 528/485: 1.3857 and 1.387 and 1.404
For L-2-HG, 2-HG concentration 0.01, Suppl. Fig. 9d
  Emission ratio of 528/485: 1.655 and 1.676 and 1.693
For L-2-HG, 2-HG concentration 0.1, Suppl. Fig. 9c
  Emission ratio of 528/485: 1.381 and 1.392 and 1.391
For L-2-HG, 2-HG concentration 0.1, Suppl. Fig. 9d
  Emission ratio of 528/485: 1.641 and 1.674 and 1.689
For L-2-HG, 2-HG concentration 0.2, Suppl. Fig. 9c
  Emission ratio of 528/485: 1.397 and 1.394 and 1.401
For L-2-HG, 2-HG concentration 0.2, Suppl. Fig. 9d
  Emission ratio of 528/485: 1.675 and 1.688 and 1.698
For L-2-HG, 2-HG concentration 1, Suppl. Fig. 9c
  Emission ratio of 528/485: 1.392 and 1.412 and 1.423
For L-2-HG, 2-HG concentration 1, Suppl. Fig. 9d
  Emission ratio of 528/485: 1.753 and 1.778 and 1.797
For L-2-HG, 2-HG concentration 2, Suppl. Fig. 9c
  Emission ratio of 528/485: 1.425 and 1.451 and 1.463
For L-2-HG, 2-HG concentration 2, Suppl. Fig. 9d
  Emission ratio of 528/485: 1.892 and 1.897 and 1.889
For L-2-HG, 2-HG concentration 10, Suppl. Fig. 9c
  Emission ratio of 528/485: 1.602 and 1.628 and 1.623
For L-2-HG, 2-HG concentration 10, Suppl. Fig. 9d
  Emission ratio of 528/485: 2.254 and 2.242 and 2.288
For L-2-HG, 2-HG concentration 20, Suppl. Fig. 9c
  Emission ratio of 528/485: 1.712 and 1.7343 and 1.752
For L-2-HG, 2-HG concentration 20, Suppl. Fig. 9d
  Emission ratio of 528/485: 2.359 and 2.347 and 2.363
For L-2-HG, 2-HG concentration 100, Suppl. Fig. 9c
  Emission ratio of 528/485: 1.988 and 1.973 and 1.992
For L-2-HG, 2-HG concentration 100, Suppl. Fig. 9d
  Emission ratio of 528/485: 2.568 and 2.652 and 2.688
For L-2-HG, 2-HG concentration 200, Suppl. Fig. 9c
  Emission ratio of 528/485: 2.0666 and 2.05 and 2.077
For L-2-HG, 2-HG concentration 200, Suppl. Fig. 9d
  Emission ratio of 528/485: 2.563 and 2.676 and 2.688
For L-2-HG, 2-HG concentration 1000, Suppl. Fig. 9c
  Emission ratio of 528/485: 2.162 and 2.183 and 2.153
For L-2-HG, 2-HG concentration 1000, Suppl. Fig. 9d
  Emission ratio of 528/485: 2.635 and 2.6341 and 2.632
For L-2-HG, 2-HG concentration 2000, Suppl. Fig. 9c
  Emission ratio of 528/485: 2.173 and 2.178 and 2.17
For L-2-HG, 2-HG concentration 2000, Suppl. Fig. 9d
  Emission ratio of 528/485: 2.667 and 2.655 and 2.697
Supplementary Fig. 6a, L-2-HG concentration 0.01
  Emission ratio of 528/485: 1.3857 and 1.387 and 1.404
Supplementary Fig. 6a, L-2-HG concentration 0.1
  Emission ratio of 528/485: 1.381 and 1.392 and 1.391
Supplementary Fig. 6a, L-2-HG concentration 0.2
  Emission ratio of 528/485: 1.397 and 1.394 and 1.401
Supplementary Fig. 6a, L-2-HG concentration 1
  Emission ratio of 528/485: 1.392 and 1.412 and 1.423
Supplementary Fig. 6a, L-2-HG concentration 2
  Emission ratio of 528/485: 1.425 and 1.451 and 1.463
Supplementary Fig. 6a, L-2-HG concentration 10
  Emission ratio of 528/485: 1.602 and 1.628 and 1.623
Supplementary Fig. 6a, L-2-HG concentration 20
  Emission ratio of 528/485: 1.712 and 1.7343 and 1.752
Supplementary Fig. 6a, L-2-HG concentration 100
  Emission ratio of 528/485: 1.988 and 1.973 and 1.992
Supplementary Fig. 6a, L-2-HG concentration 200
  Emission ratio of 528/485: 2.0666 and 2.05 and 2.077
Supplementary Fig. 6a, L-2-HG concentration 1000
  Emission ratio of 528/485: 2.162 and 2.183 and 2.153
Supplementary Fig. 6a, L-2-HG concentration 2000
  Emission ratio of 528/485: 2.173 and 2.178 and 2.17
Supplementary Fig. 6b, L-2-HG concentration 0.01
  Emission ratio of 528/485: 1.79 and 1.921 and 1.894
Supplementary Fig. 6b, L-2-HG concentration 0.1
  Emission ratio of 528/485: 1.777 and 1.91 and 1.94
Supplementary Fig. 6b, L-2-HG concentration 1
  Emission ratio of 528/485: 2.057 and 2.207 and 2.255
Supplementary Fig. 6b, L-2-HG concentration 2
  Emission ratio of 528/485: 2.268 and 2.379 and 2.449
Supplementary Fig. 6b, L-2-HG concentration 10
  Emission ratio of 528/485: 2.5843 and 2.787 and 2.825
Supplementary Fig. 6b, L-2-HG concentration 20
  Emission ratio of 528/485: 2.72 and 2.88 and 2.892
Supplementary Fig. 6b, L-2-HG concentration 100
  Emission ratio of 528/485: 2.76 and 2.892 and 2.986
Supplementary Fig. 6b, L-2-HG concentration 1000
  Emission ratio of 528/485: 2.847 and 2.935 and 2.998
Supplementary Fig. 6b, L-2-HG concentration 2000
  Emission ratio of 528/485: 2.912 and 2.995 and 3.032
Supplementary Fig. 6c, L-2-HG concentration 0.01
  Emission ratio of 528/485: 1.881 and 1.865 and 1.887
Supplementary Fig. 6c, L-2-HG concentration 0.1
  Emission ratio of 528/485: 1.869 and 1.918 and 1.908
Supplementary Fig. 6c, L-2-HG concentration 1
  Emission ratio of 528/485: 2.144 and 2.182 and 2.149
Supplementary Fig. 6c, L-2-HG concentration 2
  Emission ratio of 528/485: 2.3419 and 2.384 and 2.402
Supplementary Fig. 6c, L-2-HG concentration 10
  Emission ratio of 528/485: 2.743 and 2.7667 and 2.84
Supplementary Fig. 6c, L-2-HG concentration 20
  Emission ratio of 528/485: 2.846 and 2.91 and 2.871
Supplementary Fig. 6c, L-2-HG concentration 100
  Emission ratio of 528/485: 2.914 and 2.957 and 2.953
Supplementary Fig. 6c, L-2-HG concentration 1000
  Emission ratio of 528/485: 2.894 and 2.9819 and 2.963
Supplementary Fig. 6c, L-2-HG concentration 2000
  Emission ratio of 528/485: 2.899 and 2.986 and 2.9894
Supplementary Fig. 6e, L-2-HG concentration 0.01
  Emission ratio of 528/485: 1.655 and 1.676 and 1.693
Supplementary Fig. 6e, L-2-HG concentration 0.1
  Emission ratio of 528/485: 1.641 and 1.674 and 1.689
Supplementary Fig. 6e, L-2-HG concentration 0.2
  Emission ratio of 528/485: 1.675 and 1.688 and 1.698
Supplementary Fig. 6e, L-2-HG concentration 1
  Emission ratio of 528/485: 1.753 and 1.778 and 1.797
Supplementary Fig. 6e, L-2-HG concentration 2
  Emission ratio of 528/485: 1.892 and 1.897 and 1.889
Supplementary Fig. 6e, L-2-HG concentration 10
  Emission ratio of 528/485: 2.254 and 2.242 and 2.288
Supplementary Fig. 6e, L-2-HG concentration 20
  Emission ratio of 528/485: 2.359 and 2.347 and 2.363
Supplementary Fig. 6e, L-2-HG concentration 100
  Emission ratio of 528/485: 2.568 and 2.652 and 2.688
Supplementary Fig. 6e, L-2-HG concentration 200
  Emission ratio of 528/485: 2.563 and 2.676 and 2.688
Supplementary Fig. 6e, L-2-HG concentration 1000
  Emission ratio of 528/485: 2.635 and 2.6341 and 2.632
Supplementary Fig. 6e, L-2-HG concentration 2000
  Emission ratio of 528/485: 2.667 and 2.655 and 2.697
Supplementary Fig. 6d, L-2-HG concentration 0.01
  Emission ratio of 528/485: 1.72 and 1.724 and 1.742
Supplementary Fig. 6d, L-2-HG concentration 0.1
  Emission ratio of 528/485: 1.742 and 1.747 and 1.746
Supplementary Fig. 6d, L-2-HG concentration 1
  Emission ratio of 528/485: 1.865 and 1.88 and 1.882
Supplementary Fig. 6d, L-2-HG concentration 2
  Emission ratio of 528/485: 2.014 and 2.037 and 2.039
Supplementary Fig. 6d, L-2-HG concentration 10
  Emission ratio of 528/485: 2.446 and 2.449 and 2.469
Supplementary Fig. 6d, L-2-HG concentration 20
  Emission ratio of 528/485: 2.546 and 2.554 and 2.592
Supplementary Fig. 6d, L-2-HG concentration 100
  Emission ratio of 528/485: 2.59 and 2.651 and 2.67
Supplementary Fig. 6d, L-2-HG concentration 1000
  Emission ratio of 528/485: 2.653 and 2.699 and 2.7087
Supplementary Fig. 6d, L-2-HG concentration 2000
  Emission ratio of 528/485: 2.665 and 2.7183 and 2.7325

Source: article PMC8206213, “An L-2-hydroxyglutarate biosensor based on specific transcriptional regulator LhgR” (Nature Communications, 2021)
